Experiments:
Culex pipiens pallens = test: Knockdown spray test on adult Culex pipiens pallens (Test Example 4); assay type: in vivo; details: topical, 0.25 h, active ingredient 0.1% w/v, 0.5 ml sprayed, within 15 minutes, read-out: knockdown rate of the test insects within 15 minutes
Protocol: Ten adult Culex pipiens pallens were released in a polyethylene cup (bottom diameter: 10.6 cm), and the cup was covered with a 16-mesh nylon gauze. The polyethylene cup was placed on the bottom of a test chamber (bottom: 46 cm×46 cm, height: 70 cm). From a height of 30 cm above the upper surface of the polyethylene cup, 0.5 ml of the test drug solution was sprayed using a spray gun (a spraying pressure of 0.4 kg/cm^2). Immediately after spraying, the cup was taken out from the test chamber, and after 2 minutes, 5 minutes and 15 minutes, the number of knocked-down insects was counted to obtain a knockdown rate. The knockdown rate was calculated by the following equation.
(§1) Knockdown Rate (%)=(Number of Knocked-down Insects/Number of Tested Insects)×100

Blattella germanica = test: Knockdown spray test on Blattella germanica, 0.1% w/v oil formulation (Test Example 2); assay type: in vivo; details: topical, 0.25 h, active ingredient 0.1% w/v, 1.5 ml sprayed, within 15 minutes, read-out: knockdown rate of the test insects within 15 minutes
Protocol: Ten Blattella germanica (5 males and 5 females) were released in a test container (8.75 cm in diameter, 7.5 cm in height, and the bottom made of 16 mesh metallic wire) with the inner wall on which butter was applied, and the container was placed on the bottom of a test chamber (bottom: 46 cm×46 cm, height: 70 cm). From a height of 60 cm above the upper surface of the container, 1.5 ml of the test drug solution was sprayed using a spray gun (a spraying pressure of 0.42 kg/cm^2). Thirty seconds after spraying, the container was taken out from the test chamber, and after 2 minutes, 5 minutes and 15 minutes, the number of knocked-down insects was counted to obtain a knockdown rate. The knockdown rate was calculated by the following equation.
as §1

Structure (SMILES) | pest or weed control at 0.1 % strength (Culex pipiens pallens) [%] | pest or weed control at 0.1 % strength (Blattella germanica) [%]
O=C(NCC1CCOC1)c1cc(COCc2ccc(-c3ccccc3)o2)on1 (stereo not drawn) [(124), N-(tetrahydrofuran-3-ylmethyl)-5-(5-phenylfurfuryloxymethyl)isoxazole-3-carboxamide] | ≥ 80 | ≥ 80
O=C(NCC1CCOC1)c1cc(COCc2ccc(Cl)c(F)c2)on1 (stereo not drawn) [(276), N-(tetrahydrofuran-3-ylmethyl)-5-(4-chloro-3-fluorobenzyloxymethyl)isoxazole-3-carboxamide] | ≥ 80 | ≥ 80
O=C(NCC1CCOCC1)c1cc(COCCCc2ccccc2)on1 [(134), N-(tetrahydropyran-4-ylmethyl)-5-(3-phenylpropoxymethyl)isoxazole-3-carboxamide] | ≥ 80 | ≥ 80
Cc1ccccc1COCc1cc(C(=O)NCC2CCOC2)no1 (stereo not drawn) [(226)] | ≥ 80 | ≥ 80
O=Cc1c(C(=O)NCC2CCOC2)noc1COCc1ccccc1 (stereo not drawn) [(165), N-(tetrahydrofuran-3-ylmethyl)-(5-benzyloxymethyl-4-formyl) isoxazole-3-carboxamide] |  | ≥ 80
O=C(NCC1CCOC1)c1cc(COCc2c(F)c(F)cc(F)c2F)on1 (stereo not drawn) [(269), N-(tetrahydrofuran-3-ylmethyl)-5-(2,3,5,6-tetrafluorobenzyloxymethyl)isoxazole-3-carboxamide] | ≥ 80 | 
Cc1c(COCc2cc(C(=O)NCC3CCOC3)no2)cccc1-c1ccccc1 (stereo not drawn) [(123), N-(tetrahydrofuran-3-ylmethyl)-5-(2-methyl-3-phenylbenzyloxymethyl)isoxazole-3-carboxamide] | ≥ 80 | 
O=C(NCC1CCOC1)c1cc(Cc2ccc(Oc3ccccc3)cc2)on1 (stereo not drawn) [(162), N-(tetrahydrofuran-3-ylmethyl)-5-(4-phenoxybenzyl)isoxazole-3-carboxamide] | ≥ 80 | 
O=C(NCC1CCOC1)c1cc(CCCCCOc2ccccc2)on1 (stereo not drawn) [(147), N1-(tetrahydrofuran-3-ylmethyl)-5-(5-phenoxypentyl)isoxazole-3-carboxamide] | ≥ 80 | 
O=C(NCC1CCOC1)c1cc(CCCc2ccccc2F)on1 (stereo not drawn) [(245), N-(tetrahydrofuran-3-ylmethyl)-5-[3-(2-fluorophenyl)propyl]isoxazole-3-carboxamide] | ≥ 80 | 
O=C(NCC1CCOC1)c1cc(COCCCCc2ccccc2)on1 (stereo not drawn) [(135), N-(tetrahydrofuran-3-ylmethyl)-5-(4-phenylbutoxymethyl)isoxazole-3-carboxylic acid-3-carboxamide] | ≥ 80 | 
O=C(NCC1CCOC1)c1cc(COc2cccc(SC(F)(F)F)c2)on1 (stereo not drawn) [(202), N-(tetrahydrofuran-3-ylmethyl)-5-(3-trifluoromethylthiophenoxymethyl)isoxazole-3-carboxamide] | ≥ 80 | 
O=C(NCC1CCOC1)c1cc(Cc2ccc(C(F)(F)F)cc2)on1 (stereo not drawn) [(316), N-(tetrahydrofuran-3-ylmethyl)-5-(4-trifluoromethylbenzyl)isoxazole-3-carboxamide] | ≥ 80 | 
O=C(NCC1CCOCC1)c1cc(COc2cccc(Cl)c2)on1 [(179), N-(tetrahydropyran-4-ylmethyl)-5-(3-chlorophenoxymethyl)isoxazole-3-carboxamide] | ≥ 80 | 
O=C(NCC1COCO1)c1cc(COCc2ccccc2)on1 (stereo not drawn) [(35), N-[4-(1,3-dioxolyl)methyl]-5-benzyloxymethylisoxazole-3-carboxamide] | ≥ 80 | 
O=C(NCC1CCOC1)c1cc(Cc2cccc(Oc3ccccc3)c2)on1 (stereo not drawn) [(163), N-(tetrahydrofuran-3-ylmethyl)-5-(3-phenoxybenzyl)isoxazole-3-carboxamide] | ≥ 80 | 
O=C(NCC1CCOC1)c1cc(COCc2ccsc2)on1 (stereo not drawn) [(107), N-(tetrahydrofuran-3-ylmethyl)-5-(thiophen-3-ylmethoxymethyl)isoxazole-3-carboxamide] | ≥ 80 | 
